Active and inactive are the calls of the source. The rule behind the calls is not given here.
How the values were obtained:
[1] = molecular target: Melanocortin receptor 4 (Homo sapiens) (UniProt P32245); experiment: Displacement of Eu-DTAP-NDP-alpha-MSH-NH2 from MC4 receptor expressed in human HEK293 cells at 10^-5 to 10^-12 M after 1 hr by time resolved fluorescence method; format: cell-based
[2] = molecular target: T1, Gastrin/cholecystokinin type B receptor (Homo sapiens) (UniProt P32239); experiment: Displacement of Eu-DTAP-CCK8-NH2 from CCK2 receptor expressed in human HEK293 cells at 10^-5 to 10^-12 M after 1 hr by time resolved fluorescence method; format: cell-based
T1 sequence (whole entry): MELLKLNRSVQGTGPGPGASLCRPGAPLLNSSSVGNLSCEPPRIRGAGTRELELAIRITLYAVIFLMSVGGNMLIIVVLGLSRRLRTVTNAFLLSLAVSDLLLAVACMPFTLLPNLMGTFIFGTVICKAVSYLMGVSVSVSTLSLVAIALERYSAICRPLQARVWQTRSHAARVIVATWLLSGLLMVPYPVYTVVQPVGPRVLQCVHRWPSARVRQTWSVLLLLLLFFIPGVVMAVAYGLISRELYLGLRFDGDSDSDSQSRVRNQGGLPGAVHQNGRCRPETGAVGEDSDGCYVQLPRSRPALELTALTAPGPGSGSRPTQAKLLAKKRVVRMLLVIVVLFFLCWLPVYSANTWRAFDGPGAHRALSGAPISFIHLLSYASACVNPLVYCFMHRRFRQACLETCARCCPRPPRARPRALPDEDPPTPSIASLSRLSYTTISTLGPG

Chain of Melanocortin receptor 4 (Homo sapiens) (P32245 whole entry): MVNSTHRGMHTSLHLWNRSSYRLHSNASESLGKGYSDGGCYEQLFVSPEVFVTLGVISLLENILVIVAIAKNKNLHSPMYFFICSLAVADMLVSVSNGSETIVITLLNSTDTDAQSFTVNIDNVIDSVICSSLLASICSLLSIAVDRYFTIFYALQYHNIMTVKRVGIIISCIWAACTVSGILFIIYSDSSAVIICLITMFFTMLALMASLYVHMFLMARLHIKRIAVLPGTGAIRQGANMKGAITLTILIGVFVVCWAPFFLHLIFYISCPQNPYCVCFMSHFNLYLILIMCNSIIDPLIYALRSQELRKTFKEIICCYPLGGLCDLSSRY

`NC(=O)[C@H](CO)NC(=O)CCCCCn1cc(CCCCOC[C@H]2O[C@@](COCCCCc3cn(CCCCCC(=O)N[C@@H](CO)C(N)=O)nn3)(O[C@H]3O[C@H](COCCCCc4cn(CCCCCC(=O)N[C@@H](CO)C(N)=O)nn4)[C@@H](OCCCCc4cn(CCCCCC(=O)N[C@@H](CO)C(N)=O)nn4)[C@H](OCCCCc4cn(CCCCCC(=O)N[C@@H](CO)C(N)=O)nn4)[C@H]3OCCCCc3cn(CCCCCC(=O)N[C@@H](CO)C(N)=O)nn3)[C@@H](OCCCCc3cn(CCCCCC(=O)N[C@@H](CO)C(N)=O)nn3)[C@@H]2OCCCCc2cn(CCCCCC(=O)N[C@@H](CO)C(N)=O)nn2)nn1` was tested, and the Activity [1] was “inactive” and the Activity [2] was “inactive”.

Reference: ChEMBL document CHEMBL1914415, “A sucrose-derived scaffold for multimerization of bioactive peptides” (Bioorg Med Chem, 2011)
